# Read-outs that look alike come from different tables or passages of the source.
# How the values were obtained:
# johnsongrass = assay: Test C pre-/postemergence herbicide test; assay type: in vivo, Sorghum halepense
# Outline: (§1)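 Visual ratings on a 0–100 scale (100 = complete control) made versus untreated controls after 12 to 14 greenhouse days. Test chemicals, formulated in surfactant-containing non-phytotoxic solvent, applied preemergence to planted seeds or postemergence to 1- to 4-leaf plants (2 to 18 cm).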
# corn = assay: Test C pre-/postemergence herbicide test; assay type: in vivo, Zea mays
# Outline: as §1
# morningglory [1] = assay: Test C pre-/postemergence herbicide test; assay type: in vivo, Ipomoea coccinea
# Outline: as §1
# pigweed = assay: Test C pre-/postemergence herbicide test; assay type: in vivo, Amaranthus retroflexus
# Outline: as §1
# Surinam grass = assay: Test C pre-/postemergence herbicide test; assay type: in vivo, Urochloa decumbens
# Outline: as §1
# eastern black nightshade = assay: Test C pre-/postemergence herbicide test; assay type: in vivo, Solanum ptycanthum
# Outline: as §1
# morningglory [2] = assay: Test A pre-/postemergence herbicide test; assay type: in vivo, Ipomoea spp.; conditions: Ipomoea, 240 h; for pest or weed control at 500 g/ha: 500 g ai/ha; for pest or weed control at 2000 g/ha: 2000 g ai/ha
# Outline: (§2)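 Visual injury scores on a 0–100 scale (100 = complete control) taken about ten days post-treatment in greenhouse against untreated controls; dash means no result. Treatments: preemergence soil spray and postemergence spray to runoff on one- to two-leaf plants 2 to 10 cm tall, surfactant-containing formulation.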
# velvetleaf = assay: Test C pre-/postemergence herbicide test; assay type: in vivo, Abutilon theophrasti
# Outline: as §1
# redroot pigweed = assay: Test A pre-/postemergence herbicide test; assay type: in vivo, Amaranthus retroflexus; conditions: Amaranthus retroflexus, 240 h; for pest or weed control at 500 g/ha: 500 g ai/ha; for pest or weed control at 2000 g/ha: 2000 g ai/ha
# Outline: as §2
# cocklebur = assay: Test C pre-/postemergence herbicide test; assay type: in vivo, Xanthium strumarium
# Outline: as §1
# [3] = Preemergence, 500 g ai/ha, scale 0 to 100, 0 no effect, 100 complete control
# [4] = post-emergence, Postemergence, 0 to 100 scale, 0 no effect, 100 complete control, read-out: Plant response rating, Morningglory
# [5] = post-emergence, Postemergence, 0 to 100 scale, 0 no effect, 100 complete control, read-out: Plant response rating, Pigweed
structure (smiles),measurement,setting,value
"CCNC(=O)c1ccc(F)c(NC(=O)c2cc(C(C)(C)C)nn2CC)c1 [Compound 2, 3-(1,1-dimethylethyl)-1-ethyl-N-[5-[(ethylamino)carbonyl]-2-fluorophenyl]-1H-pyrazole-5-carboxamide]","Plant response rating (0 = no effect, 100 = complete control), Johnsongrass","johnsongrass; 62 g ai/ha, preemergence",70
same,Johnsongrass plant response rating,johnsongrass; [3],100
same,pest or weed control at 125 g/ha,"johnsongrass; Sorghum halepense, pre-emergence, 125 g ai/ha, scale 0-100, read-out: Plant response rating, Johnsongrass",90%
same,pest or weed control at 250 g/ha,"johnsongrass; Sorghum halepense, pre-emergence, 250 g ai/ha, scale 0 to 100 (0 no effect, 100 complete control), visual, 12 to 14 days, read-out: Plant response rating, Johnsongrass",100%
same,"Plant response rating (0 = no effect, 100 = complete control), Corn","corn; 62 g ai/ha, preemergence",0
same,Corn plant response rating,corn; [3],60
same,"Corn plant response rating (crop injury, 0 = no effect, 100 = complete kill) at 125 g/ha","corn; Zea mays, pre-emergence, 312 h, 125 g ai/ha, scale 0-100",30%
same,"Corn plant response rating (crop injury, 0 = no effect, 100 = complete kill) at 250 g/ha","corn; Zea mays, pre-emergence, 312 h, 250 g ai/ha, scale 0 to 100 (0 no effect, 100 complete control), visual, 12 to 14 days",35%
same,"Plant response rating (0 = no effect, 100 = complete control), Morningglory","morningglory [1]; 62 g ai/ha, preemergence",5
same,pest or weed control at 250 g/ha,"morningglory [1]; Ipomoea, pre-emergence, 250 g ai/ha, scale 0 to 100 (0 no effect, 100 complete control), visual, 12 to 14 days, read-out: Plant response rating, Morningglory",45%
same,Morningglory plant response rating,morningglory [1]; [3],100
same,"Plant response rating (0 = no effect, 100 = complete control), Pigweed","pigweed; 62 g ai/ha, preemergence",95
same,pest or weed control at 250 g/ha,"pigweed; Amaranthus retroflexus, pre-emergence, 250 g ai/ha, scale 0 to 100 (0 no effect, 100 complete control), visual, 12 to 14 days, read-out: Plant response rating, Pigweed",95%
same,Pigweed plant response rating,pigweed; [3],100
same,"Plant response rating (0 = no effect, 100 = complete control), Surinam Grass","Surinam grass; 62 g ai/ha, preemergence",90
same,Surinam Grass plant response rating,Surinam grass; [3],100
same,pest or weed control at 250 g/ha,"Surinam grass; Urochloa decumbens, pre-emergence, 312 h, 250 g ai/ha, scale 0 to 100 (0 no effect, 100 complete control), visual, 12 to 14 days, read-out: Plant response rating, Surinam Grass",100%
same,"Plant response rating (0 = no effect, 100 = complete control), Nightshade","eastern black nightshade; 62 g ai/ha, preemergence",100
same,Nightshade plant response rating,eastern black nightshade; [3],100
same,pest or weed control at 250 g/ha,"eastern black nightshade; pre-emergence, 250 g ai/ha, scale 0 to 100 (0 no effect, 100 complete control), visual, 12 to 14 days, read-out: Plant response rating, Nightshade",100%
same,pest or weed control at 500 g/ha,morningglory [2]; [4],45%
same,pest or weed control at 2000 g/ha,morningglory [2]; [4],80%
same,pest or weed control at 500 g/ha,"morningglory [2]; pre-emergence, Preemergence, visual rating, 0 to 100 scale (0 no effect, 100 complete control), read-out: Morningglory plant response rating",80%
same,pest or weed control at 2000 g/ha,"morningglory [2]; pre-emergence, Preemergence, 0 to 100 scale, 0 no effect, 100 complete control, read-out: Morningglory plant response rating",100%
same,"Plant response rating (0 = no effect, 100 = complete control), Velvetleaf","velvetleaf; 62 g ai/ha, preemergence",60
same,pest or weed control at 250 g/ha,"velvetleaf; Abutilon theophrasti, pre-emergence, 250 g ai/ha, scale 0 to 100 (0 no effect, 100 complete control), visual, 12 to 14 days, read-out: Plant response rating, Velvetleaf",100%
same,Velvetleaf plant response rating,velvetleaf; [3],100
same,pest or weed control at 500 g/ha,redroot pigweed; [5],100%
same,pest or weed control at 2000 g/ha,redroot pigweed; [5],100%
same,pest or weed control at 500 g/ha,"redroot pigweed; pre-emergence, Preemergence, visual rating, 0 to 100 scale (0 no effect, 100 complete control), read-out: Pigweed plant response rating",100%
same,pest or weed control at 2000 g/ha,"redroot pigweed; pre-emergence, Preemergence, 0 to 100 scale, 0 no effect, 100 complete control, read-out: Pigweed plant response rating",100%
same,"Plant response rating (0 = no effect, 100 = complete control), Cocklebur","cocklebur; 62 g ai/ha, preemergence",5
same,pest or weed control at 125 g/ha,"cocklebur; Xanthium strumarium, pre-emergence, 312 h, 125 g ai/ha, scale 0-100, read-out: Plant response rating, Cocklebur",5%
same,pest or weed control at 250 g/ha,"cocklebur; Xanthium strumarium, pre-emergence, 312 h, 250 g ai/ha, scale 0 to 100 (0 no effect, 100 complete control), visual, 12 to 14 days, read-out: Plant response rating, Cocklebur",65%
same,pest or weed control at 500 g/ha,"cocklebur; Xanthium strumarium, pre-emergence, 312 h, Preemergence, 500 g ai/ha, scale 0 to 100, 0 no effect, 100 complete control, read-out: Cocklebur plant response rating",80%
